Data published in patent US20230172984A1, “CLEARANCE OF SENESCENT CELLS BY ACTIVATION OF iNKT CELLS” (THE REGENTS OF THE UNIVERSITY OF CALIFORNIA, priority 2020, published 2023).

Tests used:
[1] = tested on: senescent preadipocytes (C12FDG^Hi) in eWAT of HFD mice; assay: C12FDG flow cytometry assay (SA-βgal activity) on eWAT SVF of HFD mice; type: in vivo, mouse
Description: (§1) MATERIALS AND METHODS. Mouse husbandry. All procedures involving mice were performed according to the IACUC standards following ethics approval by the animal committee at the University of California, San Francisco. Male C57BL6/J on chow or HFD fed mice. HFD mice were fed a high-fat diet (60% kcal from fat) from 6 weeks until 22 weeks of age. All experiments on HFD mice were performed at 22-24 weeks total age (16-18 weeks on HFD). Age-matched male C57BL6/J mice on standard rodent chow diet were used as controls. For the lung injury model, 10-week-old male C57BL/6J mice were used. The animals were divided into three groups: the control group, the injured group, and the α-GalCer treated group. The animals in the control group received vehicle only (i.p.) on day 10. The injured group animals received bleomycin (3 U/kg) via the intratracheal route at the start of the experiment (day 0). The animals in the α-GalCer treated groups received bleomycin (3 U/kg) on day 0, and i.p. injection of α-GalCer (2 μg/mouse) on day 10. The animals in all the groups were sacrificed on day 14, and lungs were harvested for isolation of primary pulmonary Alveolar Type II cells (ATII) on the same day. For the hydroxyproline assay, mice were euthanized 21 days after injury.
Epidydmal white adipose tissue stromal vascular fraction (eWAT SVF) isolation. eWAT SVF was isolated using standard protocols. Briefly, mice were euthanized, and epididymal fat pads were harvested, washed twice in D-PBS and minced. eWAT pads were digested with 1 U/ml Collagenase-D (Roche) in 1×HBSS containing 1% BSA (Sigma-Aldrich) for 1 hr at 37° C. Digested fat tissue was then strained twice through 100 μm strainers and neutralized with 30 ml of complete culture media (DMEM-F12 1:1, 10% FBS, 1×Penicillin-streptomycin). Samples were spun at 500 g for 5 minutes, shaken to resuspend the SVF pellet and then spun again. The resulting SVF pellet containing blood cells was lysed with ACKS buffer, washed in D-PBS and spun down. Total live SVF cells were counted using trypan blue and then used for various assays.
C12FDG flow cytometry assay. eWAT SVF cells isolated and counted as described above were adjusted to 3×10^6 cells/ml in complete culture media and incubated with 33 μM C12FDG for 1 hr in a 37° C. water bath. Cells were then spun down at 500 g for 5 minutes, washed with Cell Staining buffer, and stained with anti-CD45-APC (clone 30F-11) and anti-CD31-PE-Cy7 (clone 390) each at a 1:200 dilution on ice for 30 minutes. Cells were then washed in Cell Staining buffer and resuspended in Cell Staining buffer containing 1×7-AAD. Samples were analyzed on an Attune acoustic focusing cytometer. Gates were set as follows: cells (FSC-A/SSC-A), forward scatter singlets (FSC-H/FSC-A), side-scatter singlets (SSC-H/SSC-A), live cells (7-AAD^−), non-immune cells (CD45^−), non-endothelial cells (CD31^−) and analyzed for C12FDG fluorescence. […] Data were analyzed with FlowJo (v. 10). For Lung, 1×10^6 cells from each sample were used to perform the assay. The cells were incubated with 66 μm of C12FDG in sterile DMEM containing DNase for 1 hour at 37° C. Following the incubation, the cells were washed with cell staining buffer, blocked with anti CD16/32 mouse monoclonal antibody (1:1000, prepared by the UCSF monoclonal antibody core), and stained with APC anti-mouse CD45 (1:400), and 7-AAD (1:1000). The gating strategy followed selected 7-AAD^−, CD45^−, and C12FDG^+ cells. […]

[2] = tested on: iNKT cells in the eWAT; assay: Flow cytometry of iNKT cells in eWAT SVF of HFD mice (CD1d tetramer); type: in vivo, mouse; details: 2 μg i.p., vs obese mice treated with vehicle
Description: α-GalCer activation of iNKT cells. iNKT cells were activated in vivo using α-GalCer as described in Peralbo et al., 2006. Decreased frequency and proliferative response of invariant Vα24Vβ11 natural killer T (iNKT) cells in healthy elderly. Biogerontology 7, 483-492. Briefly, HFD mice were i.p. injected with 200 μl of a 10 μg/ml α-GalCer solution (2 μg total) made up in 5.6% Sucrose, 5% Tween-20. On day 3 or 4 post-injection, mice were euthanized for various experiments, as indicated.
Flow cytometry of iNKT cells. eWAT SVF cells were stained with PBS57 (α-GalCer-analog) loaded onto CD1d-PE tetramers prepared by the NIH Tetramer Core and anti-CD3-APC. As a negative control for subtracting background staining in eWAT SVF, samples were also stained with unloaded CD1d-PE tetramer and anti-CD3-APC. Live cells were enumerated with DAPI, and flow cytometry was performed on an Attune acoustic focusing cytometer. Gates were set to identify: cells (FSC-A/SSC-A), forward scatter singlets (FSC-H/FSC-A), side-scatter singlets (SSC-H/SSC-A), live cells (DAPI^−), and the PBS57::CD1d-PE^+/CD3-APC^+ subpopulation. The percent of unloaded CD1d-PE^+/CD3-APC^+ cells were subtracted from the loaded tetramer stained populations to eliminate the percent of background stained cells. For lung, 1×10^6 cells from each sample were used to quantify iNKT cells. […]

[3] = tested on: lung parenchymal iNKT cells; assay: Bleomycin-induced lung injury model, flow cytometry of lung iNKT cells; type: in vivo, mouse; details: bleomycin-injured mice, GalCer day 10, harvest day 14; FIG. 4C
Description: as §1, with “The animals in all the groups were sacrificed on day 14, and lungs were harvested for isolation of primary pulmonary Alveolar Type II cells (ATII) on the same day. For the hydroxyproline assay, mice were euthanized 21 days after injury.” left out
Flow cytometry of iNKT cells. eWAT SVF cells were stained with PBS57 (α-GalCer-analog) loaded onto CD1d-PE tetramers prepared by the NIH Tetramer Core and anti-CD3-APC. […] For lung, 1×10^6 cells from each sample were used to quantify iNKT cells. […]

[4] = pre-clinical and clinical studies, Wolf et al., 2018; cited from earlier work
[5] = Lynch 2012, Schipper 2012, Ji 2012; cited from earlier work

## CCCCCCCCCCCCCCCCCCCCCCCCCC(=O)N[C@@H](CO[C@H]1O[C@H](CO)[C@H](O)[C@H](O)[C@H]1O)[C@H](O)[C@H](O)CCCCCCCCCCCCCC [GalCer, alpha-Galactosylceramide]
[1]; HFD fed Traj18^−/− mice (lack invariant TCR chain) injected with GalCer
  senescent cells (C12FDG+ SVF cells), Traj18^−/− HFD mice: failed to reduce senescent cells in Traj18^−/− mice
[1]; HFD fed WT mice injected with GalCer
  senescent cells (C12FDG+ SVF cells), WT HFD mice: reduction of senescent cells in WT HFD mice
[1]; HFD mice injected with GalCer (2 μg i.p.) vs vehicle, FIG. 3A
  number of C12FDG^Hi preadipocytes in eWAT: deplete the number of these C12FDG^Hi cells to levels akin to those seen in lean control mice
[2]
  iNKT cell numbers in eWAT: dramatically increase iNKT cell numbers
[3]
  lung parenchymal iNKT cells (proportion of T cells): induced expansion of lung parenchymal iNKT cells
[4]
  tolerability / side effects: generally been well-tolerated over a wide range of doses with minimal side effects
[5]
  metabolic phenotypes in the HFD mouse model (literature): reverse adverse metabolic phenotypes
